The source of these data is patent publication US20120165304A1, “6,7,8,9-Tetrahydro-5H-1,4,7,10a-tetraaza-cyclohept[f]indene derivatives, pharmaceutical compositions containing these compounds, their use and processes for preparing them” (BOEHRINGER INGELHEIM INTERNATIONAL GMBH, priority 2008, published 2012).

In this test the target is human 5-HT2C receptor (Homo sapiens, UniProt P28335, I156V/I160V/N158S). As to the kind of experiment: cell-based.
Chain of human 5-HT2C receptor (P28335 33-458 I156V/N158S/I160V limits assumed): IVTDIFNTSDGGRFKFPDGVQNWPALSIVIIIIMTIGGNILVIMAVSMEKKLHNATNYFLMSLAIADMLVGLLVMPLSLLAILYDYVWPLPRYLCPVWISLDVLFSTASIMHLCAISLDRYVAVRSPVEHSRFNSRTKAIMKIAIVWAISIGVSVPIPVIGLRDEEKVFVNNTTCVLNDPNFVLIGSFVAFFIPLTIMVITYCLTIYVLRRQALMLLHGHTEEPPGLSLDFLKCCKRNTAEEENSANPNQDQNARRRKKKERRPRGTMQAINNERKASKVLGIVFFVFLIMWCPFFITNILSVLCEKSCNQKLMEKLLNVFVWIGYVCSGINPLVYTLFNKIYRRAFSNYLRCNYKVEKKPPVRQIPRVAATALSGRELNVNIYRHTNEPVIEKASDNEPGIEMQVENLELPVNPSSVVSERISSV
Consider `O=C(C1CN(c2c3c(nc4ccnn24)CCNCC3)C1)N1CCC(c2ccccc2)(c2ccccc2)CC1` [Example 31.72], for which the EC50 was 819 nM.
Regarding `CN(CC1CC1)C(=O)C1CN(c2c3c(nc4ccnn24)CCNCC3)C1` [Example 31.97], the concentration giving a half-maximal response (EC50) is 156 nM.
As to `Brc1cccc(OC2CN(c3c4c(nc5ccnn35)CCNCC4)C2)c1` [Example 35.14], a half-maximal response (EC50) required 477 nM.
In turn, `CCN1CCN(C(=O)C2CN(c3c4c(nc5ccnn35)CCNCC4)C2)CC1` [Example 37.1] returned an EC50 of 3 nM.
`O=C(C1CN(c2c3c(nc4ccnn24)CCNCC3)C1)N1CC2CCCC2C1` (stereo not drawn) [Example 31.166] registered an EC50 of 97 nM.
To `Fc1c(Cl)cccc1OCC1CN(c2c3c(nc4ccnn24)CCNCC3)C1` [Example 15.25] belongs 212 nM.
For the compound `CN(Cc1ccccn1)C(=O)C1CN(c2c3c(nc4ccnn24)CCNCC3)C1` [Example 31.29], the midpoint of the response, the EC50, lay at 87 nM.
`CC1CCN(C(=O)C2CN(c3c4c(nc5ccnn35)CCNCC4)C2)CC1` [Example 31.228] gave a 50% effective concentration (EC50) of 42 nM. Compared with the last compound, the EC50 is about 2.1-fold lower.
To `O=C(C1CN(c2c3c(nc4ccnn24)CCNCC3)C1)N1CCC(c2cccc(F)c2)CC1` [Example 31.211] belongs 31 nM.
`CC1(C)CC1CNC(=O)C1CN(c2c3c(nc4ccnn24)CCNCC3)C1` (stereo not drawn) [Example 37.110] returned an EC50 of 255 nM.
Then `CC1CCCN1c1c2c(nc3ccnn13)CCNCC2` (stereo not drawn) [Example 1.13], with 2300 nM.
To `O=C(C1CN(c2c3c(nc4ccnn24)CCNCC3)C1)N1CCCC(c2ccccc2F)C1` (stereo not drawn) [Example 31.117] belongs 291 nM.
Then `CN(Cc1ccc(Cl)cc1)C(=O)C1CN(c2c3c(nc4ccnn24)CCNCC3)C1` [Example 31.40], with 40 nM; and `FC(F)(F)c1ccnc(OC2CN(c3c4c(nc5ccnn35)CCNCC4)C2)n1` [Example 35.48], with 526 nM; and `CC1(C(=O)N2CCc3c(cccc3C(F)(F)F)C2)CN(c2c3c(nc4ccnn24)CCNCC3)C1` [Example 32.3], with 1960 nM.
As to `Cc1ncccc1OC1CN(c2c3c(nc4ccnn24)CCNCC3)C1` [Example 35.24], the midpoint of the response, the EC50, lay at 120 nM.
Then `O=C(C1CN(c2c3c(nc4ccnn24)CCNCC3)C1)N1CCCC1c1nccs1` (stereo not drawn) [Example 31.52], with 199 nM; and `FC(F)(F)c1ccccc1OC1CN(c2c3c(nc4ccnn24)CCNCC3)C1` [Example 35.31], with 129 nM.
As for `COc1cccc(OCC2CN(c3c4c(nc5ccnn35)CCNCC4)C2)c1` [Example 15.20], a half-maximal effect (EC50) was put at 26 nM.
Then `O=C(C1CCCCC1)N1CCN(C(=O)C2CN(c3c4c(nc5ccnn35)CCNCC4)C2)CC1` [Example 37.101], with 70 nM; and `CN(C)C1CN(C(=O)C2CN(c3c4c(nc5ccnn35)CCNCC4)C2)C1` [Example 37.33], with 7 nM.
To `O=C(C1CN(c2c3c(nc4ccnn24)CCNCC3)C1)N1CCC1` [Example 31.7] belongs 3300 nM; to `O=C(NC1CCCC1)C1CN(c2c3c(nc4ccnn24)CCNCC3)C1` [Example 31.18], 458 nM; to `O=C(C1CN(c2c3c(nc4ccnn24)CCNCC3)C1)N1CCC(c2ccc(F)cc2)CC1` [Example 31.110], 30 nM.
To `c1ccc2c(c1)nc(C1CN(c3c4c(nc5ccnn35)CCNCC4)C1)n2C1CCCC1` [Example 34.29] belongs 96 nM; to `COc1ccc(OCC2CN(c3c4c(nc5ccnn35)CCNCC4)C2)c(F)c1` [Example 15.9], 7 nM.
In turn, `Brc1ccccc1OC1CN(c2c3c(nc4ccnn24)CCNCC3)C1` [Example 35.7] registered a half-maximal effective concentration (EC50) of 67 nM.
`C[C@@H](c1ccccc1)N(C)C(=O)C1CN(c2c3c(nc4ccnn24)CCNCC3)C1` [Example 31.91]: the EC50 was 2010 nM. This EC50 lies about 30-fold higher than the previous one.
To `C[C@@H](NC(=O)C1CN(c2c3c(nc4ccnn24)CCNCC3)C1)C1CCCCC1` [Example 31.188] belongs 101 nM; to `CC1Cc2ccccc2N1C(=O)C1CN(c2c3c(nc4ccnn24)CCNCC3)C1` (stereo not drawn) [Example 31.234], 380 nM.
